Here are results for 10 molecules from patent publication US20250320206A1, “STAT6 DEGRADERS” (Gilead Sciences, Inc., priority 2024, published 2025).

For assay [1], the target named is T1, STAT6 (Homo sapiens, UniProt P42226).
T1 construct: These cells express endogenous STAT6; host or cells: HeLa LgBiT clone 4.14
T1 sequence (P42226 1-847): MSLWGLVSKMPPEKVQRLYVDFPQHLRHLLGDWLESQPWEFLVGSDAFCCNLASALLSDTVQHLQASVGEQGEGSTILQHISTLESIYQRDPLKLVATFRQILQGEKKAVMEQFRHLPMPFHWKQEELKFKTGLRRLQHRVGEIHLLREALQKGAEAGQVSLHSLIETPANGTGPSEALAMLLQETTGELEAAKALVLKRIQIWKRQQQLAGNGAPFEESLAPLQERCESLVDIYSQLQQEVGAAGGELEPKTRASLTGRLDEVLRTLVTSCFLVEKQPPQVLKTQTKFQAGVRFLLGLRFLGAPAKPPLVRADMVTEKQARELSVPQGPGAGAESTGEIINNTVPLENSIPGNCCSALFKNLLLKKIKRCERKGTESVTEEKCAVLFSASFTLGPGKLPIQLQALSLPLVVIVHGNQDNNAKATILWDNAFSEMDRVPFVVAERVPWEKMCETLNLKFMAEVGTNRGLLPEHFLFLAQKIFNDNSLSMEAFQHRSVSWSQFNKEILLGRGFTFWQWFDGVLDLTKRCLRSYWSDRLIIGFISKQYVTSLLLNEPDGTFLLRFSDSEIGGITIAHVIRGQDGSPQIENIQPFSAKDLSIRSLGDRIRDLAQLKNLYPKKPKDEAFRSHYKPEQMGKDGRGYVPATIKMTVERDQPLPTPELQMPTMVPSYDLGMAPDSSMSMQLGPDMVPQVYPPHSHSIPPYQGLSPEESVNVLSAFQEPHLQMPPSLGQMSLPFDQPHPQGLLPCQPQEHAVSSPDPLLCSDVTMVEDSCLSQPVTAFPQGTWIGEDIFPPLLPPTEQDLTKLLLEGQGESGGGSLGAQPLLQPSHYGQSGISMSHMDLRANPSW
The assay can be described thus: Stat6 Degrader Assay (HiBiT based, HeLa LgBiT clone 4.14). It counts as cell-based. The note with it: HeLa LgBiT clone 4.14 HiBiT-STAT6, 4-24 h incubation; values given for compounds with >80% Emax; geometric mean; read-out: STAT6 degradation DC50. A digest of the protocol:
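HeLa LgBiT clone 4.14 cells with CRISPR HiBiT-tagged endogenous STAT6, 5000 cells/well, compound dosed then incubated 4-24 h at 37° C, 5% CO2. Nano-Glo substrate added, 0.5 h, luminescence read as non-degraded STAT6. Terfenadine 50 μM (cell kill) defines 100% degradation.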
(In general: With HiBiT, luminescence reflects the tagged protein that the partner subunit can reach.)

Assay [2] concerns Eotaxin-3 release in human whole blood stimulated with IL-4. Kind of assay: Human Whole Blood Eotaxin-3 Assay (IL-4 stimulated eotaxin-3 release). The note with it: IL-4 stimulation, 48 h, values given for compounds with >80% Emax, geometric mean. The assay is classed as cell-based. The method, boiled down: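 Lithium-heparin human whole blood preincubated 2 h at 37° C with 4-fold serially diluted compounds (0.5% DMSO), then stimulated with recombinant human IL-4 ([…]) for 48 h. Eotaxin-3 (CCL26) in supernatant quantified by MSD immunoassay.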

Usually DC50 stands for the concentration at which degradation of the target reaches its halfway point. A word on the EC50: it is the concentration that produces a half-maximal response. Read a high EC50 as lower potency in that assay. Regarding `C[C@H]1CN(Cc2ccc3c(c2)C2(CCC2)C(=O)N3C2CCC(=O)NC2=O)CCN1CC1CCN(C(=O)c2cc(F)c(C3CCN(Cc4cc5c(-n6ccc7c(c6=O)CCN7)ccnc5n4C)CC3)c(F)c2)CC1` (stereo partly drawn) [Example 3u101, 3-(5′-(((S)-4-((1-(3,5-difluoro-4-(1-((1-methyl-4-(4-oxo-1,2,3,4-tetrahydro-5H-pyrrolo[3,2-c]pyridin-5-yl)-1H-pyrrolo[2,3-b]pyridin-2-yl)methyl)piperidin-4-yl)benzoyl)piperidin-4-yl)methyl)-3-methylpiperazin-1-yl)methyl)-2′-oxospiro[cyclobutane-1,3′-indolin]-1′-yl)piperidine-2,6-dione], the DC50 in assay [1] is 2.3 nM. Moreover, in assay [2], the EC50 was found to be 2.4 nM.

Regarding `CNc1nc(=O)n(-c2ccnc3c2cc([C@H](C)N2CC=C(c4c(C)cc(C(=O)N5CCC(CN6CCN(Cc7ccc8c(c7)C7(CC7)C(=O)N8C7CCC(=O)NC7=O)C[C@@H]6C)CC5)cc4F)CC2)n3C)cc1F` (stereo partly drawn) [Example 3u102, 3-(5′-(((S)-4-((1-(3-fluoro-4-(1-((S)-1-(4-(5-fluoro-4-(methylamino)-2-oxopyrimidin-1 (2H)-yl)-1-methyl-1H-pyrrolo[2,3-b]pyridin-2-yl)ethyl)-1,2,3,6-tetrahydropyridin-4-yl)-5-methylbenzoyl)piperidin-4-yl)methyl)-3-methylpiperazin-1-yl)methyl)-2′-oxospiro[cyclopropane-1,3′-indolin]-1′-yl)piperidine-2,6-dione], the half-maximal degradation concentration (DC50) in assay [1] was 3.4 nM. Besides, it took 1.9 nM to reach a half-maximal effect in assay [2] (EC50).

On to `C[C@H]1CN(Cc2ccc3c(c2)n(C2CC2)c(=O)n3C2CCC(=O)NC2=O)CCN1CC1CCN(C(=O)c2cc(F)c(C3CCN(Cc4cc5c(-n6ccc7c(c6=O)CCN7)ccnc5n4C)CC3)c(F)c2)CC1` (stereo partly drawn) [Example 3u106, 3-(3-cyclopropyl-5-(((S)-4-((1-(3,5-difluoro-4-(1-((1-methyl-4-(4-oxo-1,2,3,4-tetrahydro-5H-pyrrolo[3,2-c]pyridin-5-yl)-1H-pyrrolo[2,3-b]pyridin-2-yl)methyl)piperidin-4-yl)benzoyl)piperidin-4-yl)methyl)-3-methylpiperazin-1-yl)methyl)-2-oxo-2,3-dihydro-1H-benzo[d]imidazol-1-yl)piperidine-2,6-dione], for which the half-maximal degradation concentration (DC50) in assay [1] is 2.3 nM. The same molecule came in with an EC50 in assay [2] of 0.8 nM.

Take `Cc1cc(C(=O)N2CCC(CN3CCN(Cc4ccc5c(c4)n(C)c(=O)n5C4CCC(=O)NC4=O)C[C@@H]3C)CC2)cc(F)c1C1=CCN([C@@H](C)c2cc3c(-n4cc(F)c5c(c4=O)CCN5)ccnc3n2C)CC1` (stereo partly drawn) [Example 3u109, 3-(5-(((S)-4-((1-(3-fluoro-4-(1-((S)-1-(4-(7-fluoro-4-oxo-1,2,3,4-tetrahydro-5H-pyrrolo[3,2-c]pyridin-5-yl)-1-methyl-1H-pyrrolo[2,3-b]pyridin-2-yl)ethyl)-1,2,3,6-tetrahydropyridin-4-yl)-5-methylbenzoyl)piperidin-4-yl)methyl)-3-methylpiperazin-1-yl)methyl)-3-methyl-2-oxo-2,3-dihydro-1H-benzo[d]imidazol-1-yl)piperidine-2,6-dione]: the DC50 in assay [1] stood at 1.4 nM. The same molecule returned an EC50 in assay [2] of 2.8 nM.

In the case of `CNc1ccn(-c2ccnc3c2cc([C@H](C)N2CC=C(c4c(C)cc(C(=O)N5CCC(CN6CCN(Cc7ccc8c(c7)n(C7CC7)c(=O)n8C7CCC(=O)NC7=O)C[C@@H]6C)CC5)cc4F)CC2)n3C)c(=O)c1` (stereo partly drawn) [Example 3u111, 3-(3-cyclopropyl-5-(((S)-4-((1-(3-fluoro-5-methyl-4-(1-((S)-1-(1-methyl-4-(4-(methylamino)-2-oxopyridin-1 (2H)-yl)-1H-pyrrolo[2,3-b]pyridin-2-yl)ethyl)-1,2,3,6-tetrahydropyridin-4-yl)benzoyl)piperidin-4-yl)methyl)-3-methylpiperazin-1-yl)methyl)-2-oxo-2,3-dihydro-1H-benzo[d]imidazol-1-yl)piperidine-2,6-dione], the DC50 in assay [1] is 0.4 nM. The same molecule registered an EC50 in assay [2] of 0.3 nM.

Turning to `CNc1c(F)cn(-c2ccnc3c2cc(CN2CCC(c4c(F)cc(C(=O)N5CCC(CN6CCN(Cc7ccc8c(c7)C7(CC7)C(=O)N8C7CCC(=O)NC7=O)C[C@@H]6C)CC5)cc4F)CC2)n3C)c(=O)c1F` (stereo partly drawn) [Example 3u115, 3-(5′-(((S)-4-((1-(4-(1-((4-(3,5-difluoro-4-(methylamino)-2-oxopyridin-1 (2H)-yl)-1-methyl-1H-pyrrolo[2,3-b]pyridin-2-yl)methyl)piperidin-4-yl)-3,5-difluorobenzoyl)piperidin-4-yl)-methyl)-3-methylpiperazin-1-yl)methyl)-2′-oxospiro[cyclopropane-1,3′-indolin]-1′-yl)piperidine-2,6-dione], the DC50 in assay [1] was 8.3 nM. This molecule registered an EC50 in assay [2] of 9.1 nM.

On to `Cc1cc(C(=O)N2CCC(CN3CCN(Cc4ccc5c(c4)C4(CC4)C(=O)N5C4CCC(=O)NC4=O)C[C@@H]3C)CC2)cc(F)c1C1=CCN([C@@H](C)c2cc3c(-n4cc(F)c5c(c4=O)CCN5)ccnc3n2C)CC1` (stereo partly drawn) [Example 3u116, 3-(5′-(((S)-4-((1-(3-fluoro-4-(1-((S)-1-(4-(7-fluoro-4-oxo-1,2,3,4-tetrahydro-5H-pyrrolo[3,2-c]pyridin-5-yl)-1-methyl-1H-pyrrolo[2,3-b]pyridin-2-yl)ethyl)-1,2,3,6-tetrahydropyridin-4-yl)-5-methylbenzoyl)piperidin-4-yl)methyl)-3-methylpiperazin-1-yl)methyl)-2′-oxospiro[cyclopropane-1,3′-indolin]-1′-yl)piperidine-2,6-dione], for which, in assay [1], the DC50 stood at 8.7 nM. The EC50 in assay [2] stood at 6 nM.

Regarding `CNc1cc(=O)n(-c2ccnc3c2cc([C@H](C)N2CC=C(c4c(C)cc(C(=O)N5CCC(CN6CCN(Cc7ccc8c(c7)n(C7CC7)c(=O)n8C7CCC(=O)NC7=O)C[C@@H]6C)CC5)cc4F)CC2)n3C)cc1F` (stereo partly drawn) [Example 3u118, 3-(3-cyclopropyl-5-(((S)-4-((1-(3-fluoro-4-(1-((S)-1-(4-(5-fluoro-4-(methylamino)-2-oxopyridin-1 (2H)-yl)-1-methyl-1H-pyrrolo[2,3-b]pyridin-2-yl)ethyl)-1,2,3,6-tetrahydropyridin-4-yl)-5-methylbenzoyl)piperidin-4-yl)methyl)-3-methylpiperazin-1-yl)methyl)-2-oxo-2,3-dihydro-1H-benzo[d]imidazol-1-yl)piperidine-2,6-dione], the DC50 in assay [1] amounted to 1.2 nM. This molecule returned an EC50 in assay [2] of 2.2 nM.

Turning to `Cc1cc(C(=O)N2CCC(CN3CCN(Cc4ccc5c(c4)C4(CC4)C(=O)N5C4CCC(=O)NC4=O)C[C@@H]3C)CC2)cc(F)c1C1=CCN([C@@H](C)c2cc3c(-n4cc(F)c(N)c(F)c4=O)ccnc3n2C)CC1` (stereo partly drawn) [Example 3u121, 3-(5′-(((S)-4-((1-(4-(1-((S)-1-(4-(4-amino-3,5-difluoro-2-oxopyridin-1 (2H)-yl)-1-methyl-1H-pyrrolo[2,3-b]pyridin-2-yl)ethyl)-1,2,3,6-tetrahydropyridin-4-yl)-3-fluoro-5-methyl-benzoyl)piperidin-4-yl)methyl)-3-methylpiperazin-1-yl)methyl)-2′-oxospiro[cyclopropane-1,3′-indolin]-1′-yl)piperidine-2,6-dione], in assay [1], the 50% degradation concentration (DC50) came to 2.5 nM. This molecule also came in with an EC50 in assay [2] of 2 nM.

For the molecule `CNc1ccn(-c2ccnc3c2cc([C@H](C)N2CC=C(c4c(C)cc(C(=O)N5CCC(CN6CCN(Cc7ccc8c(c7)n(C7CC7)c(=O)n8C7CCC(=O)NC7=O)CC6)CC5)cc4F)CC2)n3C)c(=O)c1` (stereo partly drawn) [Example 3u122, 3-(3-cyclopropyl-5-((4-((1-(3-fluoro-5-methyl-4-(1-((S)-1-(1-methyl-4-(4-(methylamino)-2-oxopyridin-1 (2H)-yl)-1H-pyrrolo[2,3-b]pyridin-2-yl)ethyl)-1,2,3,6-tetrahydropyridin-4-yl)benzoyl)piperidin-4-yl)methyl)piperazin-1-yl)methyl)-2-oxo-2,3-dihydro-1H-benzo[d]imidazol-1-yl)piperidine-2,6-dione], the DC50 in assay [1] was 1.2 nM. In addition, the midpoint of the response in assay [2], the EC50, lay at 0.6 nM.
